Values joined by “and” are separate entries in the source; they are usually repeats but may differ in a detail not shown here. Identical values can stand only once.
Columns and labels:
POR-R MCLs = experiment: Multicellular layer (MCL) flux studies / (pro)drug transport model; assay type: in vitro ADME, human; conditions: for D s: diffusion coefficient in spheroid: Table 1
Method: The extravascular transport properties of CP-506 and its formed metabolites were investigated using a custom-designed diffusion apparatus, as described previously ([Hicks et al., 2006]). Briefly, MCL cultures were established by seeding 1 x 10^6 POR-R cells onto collagen-coated Millicell-CM inserts for 3 days. Established MCLs were placed at the interface of the two media-filled compartments of diffusion chambers. Diffusion chambers were placed in a 37°C water bath and gassed with a supraoxic (95% O2, 5% CO2) or anoxic (5% CO2, bal N2) mixture for at least 1 h prior to drug addition. Flux was initiated by the addition of internal standard ([^14C]-urea) and 20 µM CP-506 to the donor compartment. Samples (100 µl) were collected from both the donor and receiver compartments for up to 5 h thereafter. At each time point, a 25 µl aliquot was mixed with emulsifier-safe water-accepting scintillant and assayed for radioactivity using a Perkin Elmer Tricard 2910 TR liquid scintillation analyser. The remaining sample was treated with two volumes of ice-cold acetonitrile (containing 2 µM of the relevant deuterated internal standards) and stored at −80°C until LC-MS/MS analysis. Similar experiments were performed using collagen-coated inserts without MCLs to deduce the chemical stability and diffusion coefficient of CP-506 across the bare support membrane.
Drug transport in MCLs was modelled as a one-dimensional diffusion with reaction across four consecutive compartments (stirred donor, POR-R MCL, collagen-coated teflon support membrane and stirred receiver) using a custom designed MatLab routine ([Foehrenbacher et al., 2013a]). Model parameters were derived by fitting Eq. 1 and Eq. 2 to the measured concentration-time profile of internal standard [^14C]-urea, CP-506, CP-506H and CP-506M in MCL flux studies. The flux of CP-506 and its metabolites across POR-R MCLs was described using Fick’s second law with a reaction term: ∂CeN/∂t=DN∂^2CeN/∂x^2−klossNCeN− φ( kinNCeN− koutNCiN) (1) ∂CiN/∂t= kmet0(N−1)Ci(N−1)+φ(kinNCeN− koutNCiN)−kmet0NCiN (2) where C is the concentration of the diffusing substance at position x and time t in the extracellular (e) or intracellular (i) compartment, D is the diffusion coefficient through either a bare support membrane (without cells) (D suo ) or extracellular space of a POR-R MCL (D MCL ), k loss is the rate constant for first-order loss (instability) in culture medium, k in and k out are the rate constants for transmembrane transport and k met0 is the rate constant for intracellular metabolism and instability for each compound (N). For metabolites, N-1 represents the previous compound from which the current compound is produced by metabolism. Experimental data was fitted iteratively to derive a tissue diffusion coefficient (DMCL) and metabolic scaling factor (φ i ) to restrain parameter estimates from the cellular PK model (Kin, Kout, Kmet0). The diffusion coefficient for CP-506 across the bare support membrane (Dsup) was determined by solving Eq. 1 with a reaction term only for chemical instability. MCL thicknesses were estimated by fitting the measured [^14C]-urea concentrations to those predicted by Eq. 1 and Eq. 2 without instability or metabolism by using the known diffusion coefficient (DMCL) for [^14C]-urea in HCT-116 MCLs ([Wilson et al., 2004]). The diffusion coefficient (DMCL) for CP-506 in POR-R MCLs was then fitted from the measured concentrations in the donor and receiver compartments of supraoxic experiments by assuming one-directional diffusion in the extracellular space. The metabolic scaling factor (φ i ) was then fitted from the measured concentrations in the donor and receiver compartment of anoxic experiments by fixing parameter estimates to the diffusion coefficient (DMCL) from supraoxic experiments.

[1] = tested on: PORko-G cell line (POR-knockout HCT-116); experiment: Monolayer clonogenic assay (with monolayer ABM fit); assay type: cell-based, human
Method: Cells (4.8 x 10^5 cells) were seeded with 2 ml culture medium into 6-well plates and left to attach for 2 h in a humidified 37°C incubator. Compounds were then prepared in culture medium and added in a 500 µl volume to each well. Plates were returned to a humidified 37°C incubator for the duration of the drug exposure (4 h). Aerobic and anoxic experiments were performed as described above. Plates were then removed from the anaerobic chamber and processed alongside the aerobic cultures. Cells were detached from monolayer by trypsinisation and plated at serial dilutions in 6-well plates. Cells were left to grow in a standard 37°C incubator for 10 days until the controls formed discrete colonies comprised of at least 50 cells. Colonies were visualized by staining with methylene blue (2 g/L in 50% aqueous ethanol) for 30 min. The number of colonies with at least 50 cells was manually counted to determine the plating efficiency. The surviving fraction was determined as the ratio of plating efficiency of treated cells to that of the controls.
An agent-based model (ABM) employing a one-dimensional approximation for monolayers was used to develop a cellular PK model, as described in further detail elsewhere ([Hong et al., 2018b]; [Mao et al., 2018]). The mathematical framework assumes that solute concentrations in the medium are dependent only on the depth (on the z coordinate) and not the lateral position (x,y) so that all cells are exposed to the same concentration of nutrients and drugs within the monolayer culture. Moreover, all cells have the same rate of metabolism and volume growth at any instance with variability allowed in cell volume, rate of cell division and cell death. Monolayer ABM simulations were performed on a desktop Windows PC (Intel core I7 processor) from a Qt (Qt Company, https://www.qt.io/) graphical user interface passing parameters to a DLL built with Fortran95. The monolayer ABM uses a finite difference method to solve reaction-diffusion equations for each compound (N) in the medium and cells. Parameters for the cellular uptake and metabolism were fitted to the concentration-time profiles of CP-506 and its metabolites in monolayer cultures of POR-R cells using a linear (first order) cell transport and metabolism model. Terms for the extracellular instability of CP-506 and its metabolites were set at their respective values in media stability studies, and media diffusion coefficients were estimated from the support membrane diffusion coefficients described below. Experimental data describing the kinetics of CP-506 uptake under aerobic conditions was fitted by adjusting the permeability coefficients kin and kout for each compound. These values were fixed for anoxic experiments to allow for parameter estimation of the rate of intracellular CP-506 metabolism (kmet0) as well as the intracellular/extracellular partitioning ratio (kin and kout) and metabolic instability (kmet0) for its cytotoxic metabolites.
The spheroid ABM is described in further detail elsewhere ([Hong et al., 2018b]; [Mao et al., 2018]). The model employs two 3D grids and two solvers, a coarse grid represents the culture medium and is embedded with a much finer grid that represents the spheroid in a small cubic region at the bottom of the well. The spheroid grows in a specified volume and depth of unstirred medium containing dissolved oxygen. The geometry of the model is lattice-based, in which cells occupy cubic sites on a regular 3D lattice and grow in volume at a rate dependent on the local oxygen concentration. Autonomous cell mobility and cell-cell forces are not simulated. Cell motion occurs only as a result of cell division. Cells divide when the volume reaches a pre-set value (Vdiv) and the resultant daughter cell occupies an adjacent empty lattice site. […] The oxygen concentration at the air-medium boundary is defined by the gas phase of the culture environment. […]

[2] = anoxia, estimated from clonogenic survival by ABM
[3] = assumed equivalent to CP-506 for the active metabolites

With `CCN1CCN(C(=O)c2cc(N(CCBr)CCOS(C)(=O)=O)c(S(C)(=O)=O)cc2[N+](=O)[O-])CC1` [CP-506, 2-[(2-bromoethyl)-5-[(4-ethyl-1-piperazinyl)carbonyl]-2-(methylsulfonyl)-4-nitroanilino]ethyl methanesulfonate] the “D s: diffusion coefficient in spheroid” value (POR-R MCLs; DMCL fitted in POR-R MCLs under supraoxic conditions) was 1.93 × 10^−7 ± 1.8 × 10^−8 cm^2s^−1, the “DMCL: diffusion coefficient across POR-R MCLs” value (POR-R MCLs; Table S4, anoxia, fixed to the supraoxic value) was 1.93 (fixed) x 10^-6 cm^2 s^-1 and the “DMCL: diffusion coefficient across POR-R MCLs” value (POR-R MCLs; Table S4, supraoxia) was 1.93 ± 0.01 (6) x 10^-6 cm^2 s^-1. The “DMCL: diffusion coefficient across POR-R MCLs” value (POR-R MCLs; supraoxic experiments) was 1.93 ± 0.011 x 10^−7 cm^2s^−1, the IC50 ([1]; Homo sapiens, HCT-116, PORko-G monolayer, 4 h exposure, <1 ppm O2, read-out: Clonogenic IC50 under anoxia) was 17.1 ± 3.4 µM and the “Target k met0: rate constant for the maximum rate of metabolism in PORko-G cells under anoxia” value (“Target k met0: rate constant” below) [1, 2] was 0.0019 min⁻¹. The “Differential in anoxic sensitivity between PORko-G and POR-R cell lines” value ([1]; monolayer clonogenic endpoint, anoxia) was 22 fold and 20 fold.

With `CCN1CCN(C(=O)c2cc(N(CCBr)CCOS(C)(=O)=O)c(S(C)(=O)=O)cc2NO)CC1` [CP-506H, 2-((2-bromoethyl)(5-(4-ethylpiperazine-1-carbonyl)-4-(hydroxyamino)-2-(methylsulfonyl)phenyl)amino)ethyl methanesulfonate] the “D s: diffusion coefficient in spheroid” value (POR-R MCLs; [3]) was 1.93 × 10^−7 ± 1.8 × 10^−8 cm^2s^−1 and the “Target k met0: rate constant” value [1, 2] was 0.09 min⁻¹.

With `CCN1CCN(C(=O)c2cc(N(CCBr)CCOS(C)(=O)=O)c(S(C)(=O)=O)cc2N)CC1` [CP-506M, 2-((4-amino-5-(4-ethylpiperazine-1-carbonyl)-2-(methylsulfonyl)phenyl)(2-bromoethyl)amino)ethyl methanesulfonate] the “D s: diffusion coefficient in spheroid” value (POR-R MCLs; [3]) was 1.93 × 10^−7 ± 1.8 × 10^−8 cm^2s^−1 and the “Target k met0: rate constant” value [1, 2] was 0.1 min⁻¹.

`CCN1CCN(C(=O)c2cc(N(CCCl)CCCl)c(S(C)(=O)=O)cc2N)CC1` [CP-506M-Cl2, (2-Amino-5-(bis(2-chloroethyl)amino)-4-(methylsulfonyl)phenyl)(4-ethylpiperazin-1-yl)methanone] was tested, and the “D s: diffusion coefficient in spheroid” value (POR-R MCLs; [3]) was 1.93 × 10^−7 ± 1.8 × 10^−8 cm^2s^−1 and the “Target k met0: rate constant” value ([1]; anoxia, footnote d: assumed equivalent to the measured metabolites or from published PR-104A estimates) was 0.1 ^d min^−1.

Source: article PMC8861431, “Tissue Pharmacokinetic Properties and Bystander Potential of Hypoxia-Activated Prodrug CP-506 by Agent-Based Modelling” (Frontiers in Pharmacology, 2022)
